Results reported in PMC7667029, “A Targeted Computational Screen of the SWEETLEAD Database Reveals FDA-Approved Compounds with Anti-Dengue Viral Activity” (mBio, 2020).
“Also recorded” adds a separate entry of the source. Like-named read-outs stand apart in the source and are kept apart here.

Assays:
dengue viral RNA = experiment: Intracellular viral RNA quantification by qRT-PCR in infected Huh7 cells; format: cell-based, dengue virus; conditions: added 4 h postinfection at IC90 dose (5.6 μM ST-148, 0.66 μM niclosamide)
Experimental: (§1) (A) Chemical structures and (B) ROCS overlay of ST-148 and niclosamide. […] Compound addition, viral growth, and cytotoxicity assays were performed as described in the legend to Fig. 2C. (D) Virucidal activity of compounds at the concentrations indicated was measured after 60-min incubation of drugs with virus-containing solutions at 37°C. Viral titer was quantified by plaque assay on BHK-21 cells. n = 3. Statistical significance was evaluated by one-way ANOVA with Sidak’s multiple-comparison test and indicated as follows: *, P < 0.05; **, P < 0.01; ****, P < 0.0001; ns, not significant. […] On the left, cells were pretreated for 2 h prior to infection, compounds were removed during a 1-h infection at an MOI of 0.5 PFU/cell and then readministered after removal of viral inoculum. On the right, cells were similarly infected and compounds were first introduced 4 h after starting the infection. […] (F) To test the effect of ST-148 and niclosamide on viral RNA replication, Huh7 cells were infected for 1 h at an MOI of 0.5 PFU/cell. […] Intracellular RNA was collected at the time points indicated and quantified by qRT-PCR. […] N = 4, two-way ANOVA with Dunnett’s multiple-comparison test. […] After 4 h of infection, 10 μM ST-148 or 1 μM niclosamide was added; extracellular virus was collected at 24 hpi and quantified by plaque assay.

[1] = single dose, ref PubChem database, cited from earlier work
DENV2 = experiment: Antiviral activity in DENV2-infected Huh7 cells, infectious virus in supernatant by plaque assay; format: cell-based, dengue virus
Experimental: FIG 2 Pyrimethamine inhibits dengue virus and NS2B/3 proteinase cleavage like ARDP0006. (A) Chemical structures and (B) ROCS overlay of ARDP0006 and pyrimethamine. […] Infectious virus in cell supernatant was quantified by plaque assay at 24 hpi (left y axis, black or red). Cell viability was measured at the same pyrimethamine doses 24 h posttreatment by WST-1 assay (right y axis, gray). Viral titer and cell viability were normalized to DMSO-treated samples. (D) Splenic titers of DENV2-infected AGB6 mice at 4 days postinfection. Mice were infected with 1 × 10^6 PFU DENV2 and treated twice daily with 20 mg/kg pyrimethamine (n = 9) or a vehicle control (n = 10). Data were analyzed by two-tailed unpaired t test. (E) Cleavage kinetics of NS2B/3/4A in the presence of 100 μM pyrimethamine. NS2B/3/4A protein was expressed in vitro and radiolabeled with [^35S]methionine, followed by treatment with 100 μM pyrimethamine or DMSO. Reaction samples were obtained over a 45-min time course, separated by SDS-PAGE, and the fraction of uncleaved proteinase precursor remaining was determined as described previously ([23]). Data from three replicates were fit using single-phase exponential decay functions, and P value was determined by comparing the rate constant, K, of the models using the extra sum-of-squares F test.
Dengue plaque assays were carried out on BHK-21 cells in 24-well plates. Cells were infected with 10-fold serial dilutions of virus, which were allowed to adsorb for at least 1 h at 37°C, and overlaid with standard cell culture medium plus 0.37% (w/vol) sodium bicarbonate and 0.8% (w/vol) Aquacide II (Millipore Calbiochem). After 7 days of incubation at 37°C, 5% CO2, cells were fixed with 5% (final) formaldehyde and stained with crystal violet for plaque enumeration.
Between 4 × 10^4 and 1 × 10^5 Huh7 cells per well were seeded into 24-well plates 1 day prior to infection. Compounds were diluted to 100× final concentration in DMSO and then further diluted 1:100 into appropriate cell culture. Unless otherwise indicated, tested compounds were present for 1 h pretreatment and readministered for posttreatment following infection. […] Media and drugs were removed from cells for infection at a multiplicity of infection (MOI) of 0.1 or 0.5 in 200 μl cold medium per well. After 1 h at 37°C, virus inoculum was removed by aspiration and replaced with medium plus compound or control. After 24-h total infection, infectious virus was quantified by plaque assay. Antiviral IC50 dose-response curves were fitted in GraphPad Prism 8 using the “[inhibitor] versus response, variable slope” function with a constraint “bottom > 0.” IC90 values are defined as the dose at which “y = (span × 0.1) + bottom.”

dengue virus [2] = experiment: Virucidal activity assay, 60-min incubation of drug with virus, plaque assay on BHK-21 cells; format: cell-based
Experimental: as §1
Compounds were diluted to 100× in DMSO, then further diluted 1:100 into phosphate-buffered saline (PBS) containing dengue virus to a final volume of 200 μl and mixed. Aliquots were taken for plaque assays immediately after addition of compounds (time [T] = 0 min) or after incubation at 37°C for 60 min (T = 60 min).

dengue virus [3] = experiment: Initial screening of hit compounds for anti-dengue activity in tissue culture cells (Table S1); format: cell-based; conditions: viral titer relative to vehicle, tissue culture cell lines (BHK-21 48 hpi, Fig. S1; Huh7, Fig. 2C, 3C, 4C)
Experimental: For each query molecule, the top 500 compound hits obtained from the ROCS algorithm, as ranked by the Tanimoto combo score (see Data Set S1 in the supplemental material), were manually inspected for similar chemical and structural features. They were further prioritized by factors such as a lack of known side effects, commercial availability, and the intellectual property considerations that would be needed for worldwide, inexpensive use. Fourteen candidates were tested for their effects on dengue virus growth and toxicity in BHK-21 and Huh7 cells (see Table S1 and Fig. S1 in the supplemental material).
Supplementary file : TABLE S1 Summary of hits for lead compounds ARDP0006 and ST-148 screened for anti-dengue activity in tissue culture cells. Hit compounds were tested for anti-dengue activity and cell toxicity in tissue culture cell lines. Antiviral activity is summarized as follows: −, not antiviral, with titer greater than 50% of vehicle; +, weakly antiviral, with titer between 20 and 50% of vehicle; ++, moderately antiviral, with titer between 5 and 20% of vehicle; +++, highly antiviral, with titer less than 5% of vehicle. Toxicity at these doses is represented as follows: −, nontoxic, with cell viability greater than 80% of vehicle; +, mild toxicity, with cell viability between 60 and 80% of vehicle; +++, high toxicity, with cell viability less than 60% of vehicle. Data summarized here are depicted graphically in Fig. S1 and Fig. 2C, 3C, and [4]C. The Tanimoto combo score of each hit during initial ROCS screening is indicated; higher Tanimoto combo scores are indicative of increased chemical similarity. Download Table S1, PDF file, 0.04 MB.
Supplementary file : FIG S1 Initial screening of eliminated hit compounds for anti-dengue activity in tissue culture cells. BHK-21 cells were pretreated with the compounds at the indicated concentrations for 30 min, infected with dengue virus at an MOI of 0.1 PFU/cell for 1 h, and then posttreated with compound. At 48 hpi, cellular supernatant was collected and titered by plaque assay (purple). Cell viability in uninfected cells in the presence of compounds for 48 h was measured by WST assay (gray). Both viral titer and cell viability are normalized to their relative DMSO vehicle control, N = 2. Download FIG S1, PDF file, 0.06 MB.

Zika virus = test system: Zika virus; design: method as in PMID 27571349; conditions: read-out: IC50, previously reported value for Zika virus; cited from earlier work

SMILES: O=C(Nc1ccc([N+](=O)[O-])cc1Cl)c1cc(Cl)ccc1O [Niclosamide, niclosamide]
- Viral RNA abundance (dengue viral RNA): no difference in viral RNA abundance
- LD50 ([1]; IP): 7.5 mg/kg
- LD50 ([1]; Oral): 1000 mg/kg
- Virion production at increased dose after entry (DENV2; 10 μM ST-148 or 1 μM niclosamide added after 4 h of infection, extracellular virus at 24 hpi): effective during later, postentry stages; also recorded: inhibited virion production
- IC90 (DENV2; Dengue virus, Huh-7, DENV2-infected Huh7 cells, from dose-response curve fit, 24 hpi): 660 nM
- IC50 (DENV2; Dengue virus, Huh-7, DENV2-infected Huh7 cells, single infectious cycle, plaque assay at 24 hpi, read-out: IC50 of viral inhibition (infectious extracellular virus)): 280 nM
- Viral titer on delayed addition of compound (DENV2; IC90 dose first added 4 h after infection, Huh7, 24 hpi): eliminated the observed reduction of viral titer
- Virucidal effect of the combination with ST-148 (dengue virus [2]; 1 μM niclosamide added to 0.1 μM ST-148, 1 h at 37°C): significantly increased the virucidal effect of ST-148; also recorded: augment the virucidal activity of ST-148
- Virucidal activity (viral infectivity after coincubation) (dengue virus [2]; niclosamide alone at a much higher concentration, 1 h at 37°C): significantly, albeit slightly, virucidal
- Antiviral (dengue virus [3]): +++ (highly antiviral, with titer less than 5% of vehicle)
- IC50 (Zika virus): 280 nM
